Laboratory results: patent publication US20120122840A1, “COMPOUNDS AND THERAPEUTIC USES THEREOF” (Myrexis, Inc., priority 2009, published 2012)

Columns and labels:
Assay type in all cases: cell-based
p53 = assay: Western blot with phosphospecific anti-p53 antibodies in HCT-116 cells; conditions: 1 μM, 48 hours
Procedure: (§1) Western blot analyses: Cells were lysed in 10 mM Tris-HCl pH 7.5, 1 mM EDTA, 150 mM NaCl, 10% glycerol, protease inhibitor cocktail, phosphatase 1, and phosphatase 2. Protein yields were determined by Bradford assay and equivalent amounts of protein were loaded for each sample.
Phosphorylation of p53 at various sites on the N-terminus results in the stabilization of p53. […] Cell lysates were analyzed by Western blot with anti-GAPDH, anti-p53 or the phosphospecific anti-p53 antibodies.

A549 cells = assay: Image analysis of chromosome segregation; conditions: 10 μM, 24 hours
Text: (§2) Image analysis: Cells were fixed and stained with Hoechst dye and anti-(3-tubulin, anti-pericentrin and anti-centromere antibodies. Images were taken on a BD Pathway high content imaging system. For cell cycle analysis, cells were fixed, stained with propidium iodide and analyzed by FACS. For Western blot analysis, cell lysates were run on SDS-polyacrylamide gels and proteins were transferred to PVDF membrane. Membranes were probed with the indicated antibodies.
Cells were stained with Hoechst dye (blue) and anti-tubulin (green), anti-pericentrin (red) and anti-centromere (white) antibodies.

HCT-116 cells = assay: Cell cycle analysis by FACS (propidium iodide); conditions: 1 μM, 24, 48 or 72 hours
Text: as §2
Cells were fixed, stained with propidium iodide and analyzed by fluorescence activated cell sorting (FACS) using a FACScan instrument.

p21 mRNA = assay: qRT-PCR of p21 mRNA in HCT-116 cells; conditions: 1 μM, time course, relative to 7 hour DMSO control
Procedure: For qRT-PCR: Primer probe sets for p21 and GAPDH were purchased from Applied Biosystems. qRT-PCR was performed using the Quantitect Probe RT-PCR Kit from Qiagen following the standard protocol.
The p21 mRNA levels were normalized to the GAPDH mRNA levels from the same total RNA sample.

survivin = assay: Western blot of survivin in HCT-116 cells; conditions: increasing concentrations, 48 hours
Procedure: as §1
(§3) p53 was previously reported to suppress the expression of survivin. […] Cell lysates were analyzed by Western blot with anti-p53, anti-survivin or anti-β-actin antibodies (see FIG. 4C). […] Induction of p53 preceded the loss of survivin.

histone H2AX = assay: Western blot of H2AX-pS139 in HCT-116 cells; conditions: 1 μM, 7, 24, 36 or 48 hours
Procedure: as §1
Phosphorylation and stabilization of p53 occurs in response to DNA damage. Phosphorylation of H2AX functions to recruit DNA repair enzymes to sites of DNA damage and serves as a marker for DNA double strand breaks. […] Cell lysates were analyzed by Western blot with anti-H2AX-pS139 (gH2AX) or β-actin antibodies. […] Inhibition of TTK induces the phosphorylation of p53 on serine 15 and H2AX on serine 139.

p53 pathway = assay: Western blot of p53 and p21 in HCT-116 cells
Text: as §2, §1
Antibodies: All antibodies were purchased from Cell Signaling Technology.
Cell lysates were analyzed by Western blot with anti-p53, anti-p21 or anti-β-actin antibodies (see FIG. 4A).
as §3

OVCAR-5 = assay: CellTiter Glo cell viability, 7 days; conditions: Homo sapiens, 168 h, ovarian, read-out: 7 day IC50
Procedure: (§4) The compounds of the present invention were tested against a panel of cancer cells to determine the effect on cell viability. Viability was determined by measuring cellular ATP levels using CellTiter Glo reagent (Promega, Madison, Wis.).
(§5) MATERIALS: • A. Cancer cell lines obtained from ATCC or DSMZ • B. RPMI supplemented with 10% FBS/L-glutamine/NEAA/HEPES/Na-Pyruvate • C. DMEM supplemented with 10% FBS and L-glutamine. • B. Compounds, typically 50 mM stocks diluted in DMSO; • C. Clear, flat, TC-surface bottomed 96-well microplates (Corning #3595) • D. CellTiter-Glo® Luminescent Cell Viability Assay (Promega #G7573)
(§6) METHODS: • 1. Cells were plated at densities of 2000-5000 cells per well in 100 μl volume on a 96-well plate, and were incubated overnight. • 2. Test compound(s) were serially diluted to the desired 250× concentration. • 3. For each concentration of compound to be tested, 0.4 μl of 250× compound was added in triplicate to the cell plates. Plates were then incubated at 37° C. for 7 days. • 4. 100 μL of prepared CellTiter Glo reagent was added to treated cells, and plates were gently mixed for 2 minutes, and equilibrated for 10 minutes at room temperature. • 5. Luminescence was measured and the viability of treated cells relative to DMSO control was calculated.
(§7) Cancer cell lines were treated with TTK inhibitor for 7 days and cell viability was measured using the CellTiter Glo assay (Promega, Madison, Wis.).

Colo-205 = assay: CellTiter Glo cell viability, 7 days; conditions: Homo sapiens, 168 h, colon, read-out: 7 day IC50
Procedure: as §4, §5, §6, §7

MDA-MB-436 = assay: CellTiter Glo cell viability, 7 days; conditions: Homo sapiens, 168 h, breast, read-out: 7 day IC50
Procedure: as §4, §5, §6, §7

BT-474 = assay: CellTiter Glo cell viability, 7 days; conditions: Homo sapiens, 168 h, breast, read-out: 7 day IC50
Procedure: as §4, §5, §6, §7

PANC1 = assay: CellTiter Glo cell viability, 7 days; conditions: Homo sapiens, PANC-1, 168 h, pancreas, read-out: 7 day IC50
Procedure: as §4, §5, §6, §7

786-0 = assay: CellTiter Glo cell viability, 7 days; conditions: Homo sapiens, 168 h, kidney, read-out: 7 day IC50
Procedure: as §4, §5, §6, §7

DU4475 = assay: CellTiter Glo cell viability, 7 days; conditions: Homo sapiens, DU-4475, 168 h, breast, read-out: 7 day IC50
Procedure: as §4, §5, §6, §7

PC-3 = assay: CellTiter Glo cell viability, 7 days; conditions: Homo sapiens, 168 h, prostate, read-out: 7 day IC50
Procedure: as §4, §5, §6, §7

DMS-114 = assay: CellTiter Glo cell viability, 7 days; conditions: Homo sapiens, 168 h, lung, read-out: 7 day IC50
Procedure: as §4, §5, §6, §7

OVCAR-3 = assay: CellTiter Glo cell viability, 7 days; conditions: Homo sapiens, 168 h, ovarian, read-out: 7 day IC50
Procedure: as §4, §5, §6, §7

IGR-OV1 = assay: CellTiter Glo cell viability, 7 days; conditions: Homo sapiens, IGROV-1, 168 h, ovarian, read-out: 7 day IC50
Procedure: as §4, §5, §6, §7

DU-145 = assay: CellTiter Glo cell viability, 7 days; conditions: Homo sapiens, 168 h, prostate, read-out: 7 day IC50
Procedure: as §4, §5, §6, §7

MDA-MB-231 = assay: CellTiter Glo cell viability, 7 days; conditions: Homo sapiens, 168 h, breast, read-out: 7 day IC50
Procedure: as §4, §5, §6, §7

KARPAS-299 = assay: CellTiter Glo cell viability, 7 days; conditions: Homo sapiens, 168 h, blood, read-out: 7 day IC50
Procedure: as §4, §5, §6, §7

MCF-7 = assay: CellTiter Glo cell viability, 7 days; conditions: Homo sapiens, MCF7, 168 h, breast, read-out: 7 day IC50
Procedure: as §4, §5, §6, §7

NCI-N87 = assay: CellTiter Glo cell viability, 7 days; conditions: Homo sapiens, 168 h, gastric, read-out: 7 day IC50
Procedure: as §4, §5, §6, §7

HCC827 = assay: CellTiter Glo cell viability, 7 days; conditions: Homo sapiens, 168 h, lung, read-out: 7 day IC50
Procedure: as §4, §5, §6, §7

U-87MG = assay: CellTiter Glo cell viability, 7 days; conditions: Homo sapiens, 168 h, CNS, read-out: 7 day IC50
Procedure: as §4, §5, §6, §7

HCT-15 = assay: CellTiter Glo cell viability, 7 days; conditions: Homo sapiens, 168 h, colon, read-out: 7 day IC50
Procedure: as §4, §5, §6, §7

SW-480 = assay: CellTiter Glo cell viability, 7 days; conditions: Homo sapiens, SW480, 168 h, colon, read-out: 7 day IC50
Procedure: as §4, §5, §6, §7

BxPC-3 = assay: CellTiter Glo cell viability, 7 days; conditions: Homo sapiens, 168 h, pancreas, read-out: 7 day IC50
Procedure: as §4, §5, §6, §7

SK-BR-3 = assay: CellTiter Glo cell viability, 7 days; conditions: Homo sapiens, 168 h, breast, read-out: 7 day IC50
Procedure: as §4, §5, §6, §7

OPM-2 = assay: CellTiter Glo cell viability, 7 days; conditions: Homo sapiens, 168 h, blood, read-out: 7 day IC50
Procedure: as §4, §5, §6, §7

ZR-75-1 = assay: CellTiter Glo cell viability, 7 days; conditions: Homo sapiens, 168 h, breast, read-out: 7 day IC50
Procedure: as §4, §5, §6, §7

Question: For Cc1cc(N2CCOCC2)ccc1Nc1nc(NC2CCCCC2)c2nc[nH]c2n1 [Compound A, N6-cyclohexyl-N2-(2-methyl-4-morpholino-phenyl)-9H-purine-2,6-diamine], which “site of p53 phosphorylation” value (p53) is on record?
Answer: phosphorylated on serine 15

Question: And the chromosome segregation (A549 cells)?
Answer: causes chromosome segregation defects

Question: What about the “DNA content (ploidy)” value (HCT-116 cells) of the same molecule?
Answer: both aneuploidy, as seen in FIG. 3 by a broadening of the 2N and 4N peaks, as well as the formation of tetraploid (8N) cells

Question: And the “p21 mRNA normalized to GAPDH mRNA” value (p21 mRNA)?
Answer: induced in a time-dependent manner

Question: What about the survivin protein (survivin) of the same molecule?
Answer: decrease in survivin protein

Question: And the “phosphorylation of serine 139 on H2AX” value (histone H2AX)?
Answer: induced by Compound A in a time-dependent manner

Question: And the “time of maximal induction of the p53 pathway” value (p53 pathway; 1 μM)?
Answer: ≤ 36 h

Question: And the “p53 pathway activation (p53, p21 protein)” value (p53 pathway; 1 μM, time course)?
Answer: activate the p53 pathway in a time- and dose-dependent manner

Question: What about the p53 protein induction (p53 pathway; increasing concentrations, 48 hours) of the same molecule?
Answer: induced p53 in a dose- and time-dependent manner

Question: What does the source list for Cc1cc(N2CCOCC2)ccc1Nc1nc(NC2CCCCC2)c2nc[nH]c2n1 [N6-cyclohexyl-N2-(2-methyl-4-morpholino-phenyl)-9H-purine-2,6-diamine]?
Answer: IC50 (OVCAR-5): 150 nM; IC50 (Colo-205): 90 nM; IC50 (MDA-MB-436): 8700 nM; IC50 (BT-474): > 30000 nM; IC50 (PANC1): 3700 nM; IC50 (786-0): 1200 nM; IC50 (DU4475): 72 nM; IC50 (PC-3): 200 nM; IC50 (DMS-114): 180 nM; IC50 (OVCAR-3): 150 nM; IC50 (IGR-OV1): 580 nM; IC50 (DU-145): 370 nM; IC50 (MDA-MB-231): 28000 nM; IC50 (KARPAS-299): 96 nM; IC50 (MCF-7): 61 nM; IC50 (NCI-N87): 2100 nM; IC50 (HCC827): 94 nM; IC50 (U-87MG): 670 nM; IC50 (HCT-15): 280 nM; IC50 (SW-480): 140 nM; IC50 (BxPC-3): 120 nM; IC50 (SK-BR-3): 56 nM; IC50 (OPM-2): 99 nM; IC50 (ZR-75-1): 56 nM
